Source: US4818761A, “2-(4-pyridylaminomethyl)-benzimidazole derivatives having antiviral activity” (priority 1986, dated 1989)
≈ marks a conversion by molar mass, not a printed value.

Key:
in vitro = conditions: monkey, llc-mk2 cells
[1] = system: enterovirus type 70 (EV70); test: Inhibition of EV70 cytopathogenic effect (CPE) in LLC-MK2 cells; format: cell-based; conditions: for IC50: Enterovirus D, * Virus CPE inhibition assay, LLC-MK2 cells, 33° C.
[2] = system: coxsackievirus type B4 (CB4); test: Inhibition of CB4 cytopathogenic effect (CPE) in LLC-MK2 cells; format: cell-based; conditions: for CI CB4 (C)/(A): CI = CD50 (LLC-MK2)/IC50 (virus CPE); for IC50: Coxsackievirus, * Virus CPE inhibition assay, LLC-MK2 cells, 37° C.
[3] = system: coxsackievirus type B4 (CB4); test: Inhibition of CB4 plaque formation in LLC-MK2 cells; format: cell-based; conditions: for CI CB4 (C)/(A): CI = CD50 (LLC-MK2)/IC50 (plaque); for IC50: Coxsackievirus, plaque reduction, LLC-MK2 cells, 37° C.
[4] = system: poliovirus type 2 (Polio2); test: microbe, parasite or virus in culture; format: cell-based; conditions: for IC50: Enterovirus C, LLC-MK2, read-out: IC50 Polio2; for CI Polio2 (C)/(A): CI = CD50 (LLC-MK2)/IC50 (plaque)
[5] = system: enterovirus type 70 (EV70); test: Inhibition of EV70 plaque formation in LLC-MK2 cells; format: cell-based; conditions: for CI EV70 (C)/(A): CI = CD50 (LLC-MK2)/IC50 (plaque); for IC50: Enterovirus D, plaque reduction, LLC-MK2 cells, 33° C.
[6] = system: rhinovirus type 14 (HRV14); test: Inhibition of HRV14 plaque formation in HeLa cells; format: cell-based; conditions: Enterovirus, HRV14; plaque reduction, HeLa cells, 33° C.

Row | Compound | CC50 (in vitro) [mg/L] | CI EV70 (C)/(A) ([1]; CI = CD50 (LLC-MK2)/IC50 (virus CPE)) | IC50 [1] [mg/L] | CI CB4 (C)/(A) [2] | IC50 [2] [mg/L] | CI CB4 (C)/(A) [3] | IC50 [3] [mg/L] | IC50 [4] [mg/L] | CI EV70 (C)/(A) [5] | IC50 [5] [mg/L] | IC50 [6] [mg/L] | CI Polio2 (C)/(A) [4]
1 | Clc1ccc(-n2c(CNc3ccncc3)nc3ccccc32)cc1Cl [LXIX] | > 100 | > 18 | 5.6 (≈ 15.2 µM) | > 18 | 5.6 (≈ 15.2 µM) | – | – | – | – | – | – | –
2 | Ic1ccc2[nH]c(CNc3ccncc3)nc2c1 [III] | > 100 | – | – | – | – | > 3 | 33 (≈ 94.2 µM) | > 100 | > 15 | 6.5 (≈ 18.6 µM) | 6.2 (≈ 17.7 µM) | –
3 | OCCn1c(CNc2ccncc2)nc2ccccc21 [XX] | > 2000 | – | > 100 | – | – | – | > 100 | – | – | – | – | –
4 | CCCCCCCCn1c(CNc2ccncc2)nc2ccccc21 [XIX] | 354 (≈ 1050 µM) | – | > 100 | – | – | 24 | 14.8 (≈ 44 µM) | – | – | – | – | –
5 | CCn1c(CNc2ccncc2)nc2cc(C)ccc21 [XL, 1-ethyl-2-(4-pyridylaminomethyl)-5-methyl benzimidazole] | > 100 | – | > 100 | > 2 | 56.2 (≈ 211 µM) | – | – | – | – | – | – | –
6 | CC=Cn1c(CNc2ccncc2)nc2ccccc21 [XIV] | > 2000 | – | > 100 | – | – | > 36 | 56.2 (≈ 213 µM) | – | – | – | – | –
7 | Fc1cc2nc(CNc3ccncc3)[nH]c2cc1Cl [XXXV] | > 100 | – | – | – | – | > 3 | 34 (≈ 123 µM) | > 100 | > 15 | 6.8 (≈ 24.6 µM) | 15.5 (≈ 56 µM) | –
8 | OCCCn1c(CNc2ccncc2)nc2ccccc21 [LI] | > 1000 | – | > 100 | 18 | 56.2 (≈ 199 µM) | – | – | – | – | – | > 100 | –
9 | c1ccc(-n2c(CNc3ccncc3)nc3ccccc32)cc1 [XXI] | 1410 (≈ 4710 µM) | – | – | – | – | 943 | 1.5 (≈ 4.99 µM) | 48 (≈ 160 µM) | 943 | 1.5 (≈ 4.99 µM) | > 50 | 29
10 | Cc1cccc(-n2c(CNc3ccncc3)nc3ccccc32)c1 [LXIII] | > 100 | – | – | > 18 | 5.6 (≈ 17.8 µM) | – | – | – | > 18 | 5.6 (≈ 17.8 µM) | – | –
11 | CCCc1ccc2[nH]c(CNc3ccncc3)nc2c1 [V] | 354 (≈ 1330 µM) | – | – | – | – | – | > 100 | > 100 | 93 | 3.8 (≈ 14.3 µM) | – | –
12 | CCc1cc2[nH]c(CNc3ccncc3)nc2cc1Br [XXXI, 2-(4-pyridylaminomethyl)-5(6)-ethyl-6(5)-bromobenzimidazole] | 88.4 (≈ 267 µM) | – | – | – | – | – | > 10 | 82 (≈ 248 µM) | 74 | 1.2 (≈ 3.62 µM) | 1.4 (≈ 4.23 µM) | 1
13 | CCCCn1c(CNc2ccncc2)nc2cc(C)ccc21 [XLII] | 1410 (≈ 4800 µM) | – | – | – | – | 1,010 | 1.4 (≈ 4.76 µM) | 27.6 (≈ 93.7 µM) | 240 | 5.9 (≈ 20 µM) | > 50 | 51
14 | CCc1ccc2c(c1)nc(CNc1ccncc1)n2CC [XLI] | > 100 | – | > 100 | – | > 100 | – | – | – | – | – | – | –
15 | CC(C)n1c(CNc2ccncc2)nc2ccccc21.Cl [XIII, 1-isopropyl-2-(4-pyridylaminomethyl)benzimidazole hydrochloride] | > 100 | – | > 100 | – | – | > 1 | 85 | – | – | – | – | –
16 | FC(F)(F)c1ccc(-n2c(CNc3ccncc3)nc3ccccc32)cc1 [LXIV] | > 100 | – | > 100 | > 18 | 5.6 (≈ 15.2 µM) | – | – | – | – | – | – | –
17 | CCCCc1ccc2[nH]c(CNc3ccncc3)nc2c1 [VII] | 56.2 (≈ 200 µM) | – | – | – | – | – | – | – | 3 | 17.8 (≈ 63.5 µM) | – | –
18 | CCc1ccc(-n2c(CNc3ccncc3)nc3ccccc32)cc1 [LXVI] | > 100 | – | – | – | – | > 37 | 2.7 (≈ 8.22 µM) | > 100 | – | > 100 | > 100 | –
19 | c1ccc(-c2ccc3[nH]c(CNc4ccncc4)nc3c2)cc1 [IX] | > 100 | – | > 100 | – | – | – | – | – | – | – | – | –
20 | COc1ccc(-n2c(CNc3ccncc3)nc3ccccc32)cc1 [LXVIII] | > 100 | – | > 100 | > 18 | 5.6 (≈ 16.9 µM) | – | – | – | – | – | – | –
21 | COc1cc2nc(CNc3ccncc3)[nH]c2cc1OC [XXXIV] | > 100 | – | > 100 | – | – | – | – | – | – | – | – | –
22 | Cc1ccc(-n2c(CNc3ccncc3)nc3ccccc32)cc1 [XXII] | 1410 (≈ 4500 µM) | – | – | – | – | 2,946 | 0.48 (≈ 1.53 µM) | > 10 | 2,719 | 0.52 (≈ 1.65 µM) | 38 (≈ 121 µM) | –
23 | CCCCCCn1c(CNc2ccncc2)nc2ccccc21 [XVIII] | 707 (≈ 2290 µM) | – | – | – | – | 544 | 1.3 (≈ 4.21 µM) | > 100 | 16 | 44 (≈ 143 µM) | – | –
